For 36 compounds, minimal effective concentration and melting point results are on record in patent US7317028B2, “Cell differentiation inducer” (Schering Aktiengesellschaft, priority 1996, dated 2008).

For one series, the system named is A2780 cells. Briefly: Test for induction of differentiation in A2780 cells (ALP activity, ALPmin). The note with it: A2780 cells, 3 days incubation, minimum concentration of the drug inducing increase of ALP activity. Type of series: cell-based, human. The protocol: Increase of alkaline phosphatase (ALP) activity is known as an indicator for differentiation of human colon cancer cells. […] Thus, differentiation inducing action was evaluated using ALP activity as an indicator.
To each well of a 96-well plate was placed 0.1 mL of A2780 cells (15,000 cells/well) and the next day was added 0.1 mL of a sequential dilute of test solution with the medium. […] The reaction was quenched with 0.05 mL/well of 3N sodium hydroxide aq. For each well, an absorbance at 405 nm was measured to determine the minimum concentration of the drug inducing increase of ALP activity (ALPmin).

Counter-ions that a name gives are not always drawn.

Compound `O=C(Cc1cccnc1)NCc1ccc(C(=O)Nc2ccccc2O)cc1` [Example 42, N-(2-hydroxyphenyl)-4-[N-(pyridin-3-yl)acetylaminomethyl]benzamide] came in with a melting point of 201 to 202 °C. Besides, the minimal effective concentration with A2780 cells (Homo sapiens, 72 h) came out at 10 µM.
The corresponding values for `Nc1ccccc1NC(=O)c1ccc(NC(=O)CN(Cc2cccnc2)C(=O)C(F)(F)F)cc1` [Example 114, N-(2-aminophenyl)-4-[[N-(pyridin-3-yl)methyl-N-trifluoroacetylamino]acetylamino]benzamide] are 145 °C (dec.) and 3 µM.
Turning to `Nc1ccccc1NC(=O)c1ccc(CNC(=O)c2ccc(Cl)nc2)cc1` [Example 18, N-(2-aminophenyl)-4-[N-(6-chloronicotinoyl)aminomethyl]benzamide], the melting point is 205 to 208 °C (dec.). The compound also gave a minimal effective concentration in the series on A2780 cells (Homo sapiens, 72 h) of 3 µM.
Regarding `Cc1cccc(C(=O)NCc2ccc(C(=O)Nc3ccccc3N)cc2)n1` [Example 13, N-(2-aminophenyl)-4-[N-(6-methylpicolinoyl)aminomethyl]benzamide], the melting point was in the range of 172 to 173 °C. In the series on A2780 cells (Homo sapiens, 72 h), this compound gave a minimal effective concentration of 1 µM.
As to `Nc1ccccc1NC(=O)c1ccc(NC(=O)CNCc2cccnc2)cc1` [Example 115, N-(2-aminophenyl)-4-[[N-(pyridin-3-yl)methylamino]acetylamino]benzamide], the melting point is 160 °C (dec.). In the series on A2780 cells (Homo sapiens, 72 h), this compound registered a minimal effective concentration of 0.01 µM.
For the compound `Nc1ccccc1NC(=O)c1ccc(CNC(=O)c2ccccn2)cc1` [Example 12, N-(2-aminophenyl)-4-(N-picolinoylaminomethyl)benzamide], the melting point is 173 to 178 °C (dec.).
Turning to `Nc1ccccc1NC(=O)c1ccc(CNC(=O)OCc2ccc(Cl)nc2)cc1` [Example 59, N-(2-aminophenyl)-4-[N-(6-chloropyridin-3-yl)methoxycarbonylaminomethyl]benzamide], the melting point was in the range of 180 to 185 °C. Moreover, the minimal effective concentration in the series with A2780 cells (Homo sapiens, 72 h) came to 3 µM.
Consider `Nc1ccccc1NC(=O)c1ccc(CNC(=O)c2cc3ccncc3o2)cc1` [Example 39, N-(2-aminophenyl)-4-[N-(furo[2,3-c]pyridin-2-yl)carbonylaminomethyl]benzamide], for which the melting point is 210 °C (dec.). This compound came in with a minimal effective concentration in the series on A2780 cells (Homo sapiens, 72 h) of 0.1 µM.
In turn, `CN(CC(=O)Nc1ccc(C(=O)Nc2ccccc2N)cc1)Cc1cccnc1` [Example 119, N-(2-aminophenyl)-4-[[N-(pyridin-3-yl)methyl-N-methylamino]acetylamino]benzamide] yielded a melting point of 154 to 155 °C. Besides, the minimal effective concentration with A2780 cells (Homo sapiens, 72 h) was 3 µM.
On the same counts, the results for `Nc1ccccc1NC(=O)c1ccc(NC(=O)CCc2cccnc2)cc1` [Example 112, N-(2-aminophenyl)-4-[[3-(pyridin-3-yl)propanoyl]amino]benzamide] are 184 to 186 °C and 0.1 µM.
On the same counts, the results for `CN(C)c1ccc(CC(=O)Nc2ccc(C(=O)Nc3ccccc3N)cc2)cc1` [Example 108, N-(2-aminophenyl)-4-[[4-(N,N-dimethylamino)phenylacetyl]amino]benzamide] are 140 °C and 3 µM.
On the same counts, the results for `Nc1ccccc1NC(=O)c1ccc(CNC(=O)c2ccc(C(F)(F)F)cc2)cc1` [Example 9, N-(2-aminophenyl)-4-[N-(4-trifluoromethylbenzoyl)aminomethyl]benzamide] are 243 to 246 °C and 1 µM.
Turning to `Cn1cncc1COC(=O)NCc1ccc(C(=O)Nc2ccccc2N)cc1` [Example 74, N-(2-aminophenyl)-4-[N-(1-methylimidazol-5-yl)methoxycarbonylaminomethyl]benzamide], the melting point is 162 to 165 °C (dec.). In the series on A2780 cells (Homo sapiens, 72 h), this compound showed a minimal effective concentration of 10 µM.
The corresponding values for `Cc1ccc(COC(=O)NCc2ccc(C(=O)Nc3ccccc3N)cc2)cn1` [Example 57, N-(2-aminophenyl)-4-[N-(6-methylpyridin-3-yl)methoxycarbonylaminomethyl]benzamide] are 164 to 165 °C and 3 µM.
The corresponding values for `Nc1ccccc1NC(=O)c1ccc(CNC(=O)OCCCc2cccnc2)cc1` [Example 55, N-(2-aminophenyl)-4-[N-[3-(pyridin-3-yl)propyloxycarbonyl]aminomethyl]benzamide] are 121 to 124 °C and 1 µM.
Compound `Cc1ccc(O)c(NC(=O)c2ccc(CNC(=O)OCc3cccnc3)cc2)c1` [Example 84, N-(2-hydroxy-5-methylphenyl)-4-[N-(pyridin-3-yl)methoxycarbonylaminomethyl]benzamide] registered a melting point of 155 to 155.5 °C.
The same measure, in the same setting: for `CC(Oc1cccnc1)C(=O)NCc1ccc(C(=O)Nc2ccccc2N)cc1` (centres unmarked) [Example 47, N-(2-aminophenyl)-4-[N-[2-(pyridin-3-yl)oxy]propionylaminomethyl]benzamide] the value was 171 to 173 °C (dec.); for `Nc1ccccc1NC(=O)c1ccc(NC(=O)CCCc2cccnc2)cc1` [Example 118, N-(2-aminophenyl)-4-[[4-(pyridin-3-yl)butanoyl]amino]benzamide], 165 to 167 °C (dec.); for `Nc1ccccc1NC(=O)c1ccc(CNC(=O)c2cccnc2)cc1` [Example 14, N-(2-aminophenyl)-4-(N-nicotinoylaminomethyl)benzamide], 193 to 196 °C.
With `Nc1ccccc1NC(=O)c1ccc(CNC(=O)Oc2cccnc2)cc1`, the melting point is 209 °C (dec.).
On the same count and under the same terms, for `Nc1ccccc1NC(=O)c1ccc(CNc2c(NCc3cccnc3)c(=O)c2=O)cc1` [Example 144, N-(2-aminophenyl)-4-[N-[3-[(pyridin-3-yl)methylamino]cyclobuten-1,2-dion-4-yl]aminomethyl]benzamide] the value was 230 °C.
Same read-out and setting: as for `Nc1ccccc1NC(=O)c1ccc(CNC(=O)OCC2=CN(c3ccccc3)CO2)cc1` [Example 62, N-(2-aminophenyl)-4-[N-(3-phenyloxazol-5-yl)methoxycarbonylaminomethyl]benzamide], the figure is 192 to 195 °C; as for `Nc1ccccc1NC(=O)c1ccc(CNC(=O)c2cnccn2)cc1` [Example 20, N-(2-aminophenyl)-4-[N-(pyrazin-2-yl)carbonylaminomethyl]benzamide], 207 °C (dec.).
Take `Nc1cccc(NC(=O)NCc2ccc(C(=O)Nc3ccccc3N)cc2)c1` [Example 90, N-(2-aminophenyl)-4-[N′-(3-aminophenyl)ureidomethyl]benzamide]: the minimal effective concentration with A2780 cells stood at 3 µM.
For `Nc1ccccc1NC(=O)c1ccc(CNC(=O)c2ccncc2)cc1` [Example 19, N-(2-aminophenyl)-4-(N-isonicotinoylaminomethyl)benzamide], the melting point was 234 to 237 °C (dec.).
Turning to `Nc1ccccc1NC(=O)c1ccc(-n2cc(COc3cccnc3)oc2=O)cc1` [Example 139, N-(2-aminophenyl)-4-[5-(pyridin-3-yl)oxymethyl-1,3 oxazolin-2-on-3-yl]benzamide], the minimal effective concentration in the series on A2780 cells (Homo sapiens, 72 h) was 0.3 µM.
Turning to `Nc1ccccc1NC(=O)c1ccc(CNC(=O)c2ccco2)cc1` [Example 22, N-(2-aminophenyl)-4-[N-(furan-2-yl)carbonylaminomethyl]benzamide], the melting point was 197 °C (dec.).
The compound `Nc1ccccc1NC(=O)c1ccc(NC(=O)CCCc2ccccc2)cc1` [Example 101, N-(2-aminophenyl)-4-[(4-phenylbutanoyl)amino]benzamide] had a minimal effective concentration in the series with A2780 cells (Homo sapiens, 72 h) of 3 µM.
In the series with A2780 cells, `Cn1cccc1C(=O)NCc1ccc(C(=O)Nc2ccccc2N)cc1` [Example 24, N-(2-aminophenyl)-4-[N-(N′-methyl-1H-pyrrol-2-yl)carbonylaminomethyl]benzamide] yielded a minimal effective concentration of 1 µM.
As for `Nc1ccc(F)cc1NC(=O)c1ccc(CNC(=O)OCc2cccnc2)cc1` [Example 70, N-(2-amino-5-fluorophenyl)-4-[N-(pyridin-3-yl)methoxycarbonylaminomethyl]benzamide], the minimal effective concentration in the series on A2780 cells (Homo sapiens, 72 h) came out at 0.1 µM.
Same read-out and setting: as for `O=C(Nc1ccccc1O)c1ccc(CN(Cc2cccnc2)C(=O)OCc2cccnc2)cc1` [Example 81, N-(2-hydroxyphenyl)-4-[N-(pyridin-3-yl)methyl-N-(pyridin-3-yl)methoxycarbonylaminomethyl]benzamide], the figure is 10 µM.
Still for that read-out and setting: for `Nc1ccc(NC(=O)c2ccc(CNC(=O)OCc3cccnc3)cc2)cc1` [Comp. Ex. 2, N-(4-aminophenyl)-4-[N-(pyridin-3-yl)methoxycarbonylaminomethyl]benzamide, reference compound] the value was above 100 µM.
The compound `Nc1ccccc1NC(=O)Cc1cc2cc(NC(=O)OCc3cccnc3)ccc2o1` [Example 87, N-(2-aminophenyl)-5-[(pyridin-3-yl)methoxycarbonyl]aminobenzofuran-2-carboxyamide] returned a melting point of 173 to 174 °C.
Still for that read-out and setting: as for `Nc1ccccc1NC(=O)c1ccc(CNC(=O)c2cccs2)cc1` [Example 21, N-(2-aminophenyl)-4-[N-(thiophen-2-yl)carbonylaminomethyl]benzamide], the figure is 202 to 205 °C (dec.).
In turn, `Cc1ncsc1CCOC(=O)NCc1ccc(C(=O)Nc2ccccc2N)cc1` [Example 64, N-(2-aminophenyl)-4-C[N-[2-(4-methylthiazol-5-yl)ethoxycarbonyl]aminomethyl]benzamide] showed a minimal effective concentration in the series on A2780 cells of 3 µM.
Compound `Nc1ccccc1NC(=O)c1ccc(NC(=O)Cc2ccccc2[N+](=O)[O-])cc1` [Example 103, N-(2-aminophenyl)-4-[(2-nitrophenylacetyl)amino]benzamide hydrochloride] had a minimal effective concentration in the series with A2780 cells (Homo sapiens, 72 h) of 1 µM.

The minimal effective concentration is the lowest level tested that produced the effect sought. The low end stands for an effect from little substance, the high end for a need for much substance. For orientation: melting point means the temperature, or range, at which the solid turns liquid.
